# Laboratory results as given in patent publication US20230339856A1, “NOVEL PHARMACOLOGICAL CHAPERONE COMPOUNDS OF HUMAN ACID ALPHA-GLUCOSIDASE AND THE THERAPEUTIC USE THEREOF” (UNIVERSITÉ GRENOBLE ALPES, priority 2020, published 2023).
# Read-outs that look alike come from different tables or passages of the source.
# Assays:
# [1] = target: β-glucosylceramide synthase (GCS) (Mus musculus (Mouse), UniProt O88693); assay: Inhibition of GCS in situ in RAW 264.7 cells; type: cell-based; details: pH 7.0, 1 μM NBD-ceramide
# β-glucosylceramide synthase (GCS), sequence (O88693 whole entry): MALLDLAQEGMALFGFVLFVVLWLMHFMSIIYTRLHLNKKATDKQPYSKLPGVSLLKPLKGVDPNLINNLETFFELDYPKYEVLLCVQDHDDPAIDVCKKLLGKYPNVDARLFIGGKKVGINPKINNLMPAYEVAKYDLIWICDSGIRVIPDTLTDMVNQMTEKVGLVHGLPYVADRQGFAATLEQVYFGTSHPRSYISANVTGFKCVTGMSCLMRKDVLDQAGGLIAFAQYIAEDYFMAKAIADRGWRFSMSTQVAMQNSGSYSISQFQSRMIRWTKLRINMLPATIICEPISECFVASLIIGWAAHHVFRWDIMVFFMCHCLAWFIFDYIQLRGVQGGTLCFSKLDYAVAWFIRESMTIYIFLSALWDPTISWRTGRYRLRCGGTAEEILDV
# Experimental: (§1) The selectivity of the compounds was evaluated in the laboratory of Professors Herman S. Overkleeft and Johanes M. F. G. Aerts, Leiden Institute of Chemistry, Leiden University (NL). The enzymes used for determining the selectivity of inhibition of the compounds with respect to various human enzymes are the α-glucosidase II of the endoplasmic reticulum (GANAB), recombinant human lysosomal β-glucocerebrosidase (GBA1), human non-lysosomal β-glucosylceramidase (GBA2) and β-glucosylceramide synthase (GCS). The inhibiting activity of the compounds on these various enzymes is determined as described in the publication by Artola et al., 2017, ACS Cent. Sci. 3: 784-793. The enzyme GBA1 sold under the name Cerezyme® and the enzyme rhGAA sold under the name Myozyme® are used. The human GANAB enzyme used for this study is that of fibroblasts of patients suffering from Pompe disease diagnosed as lacking active GAA and voluntary donors. These fibroblasts were cultivated on an HAMF12-DMEM medium (Sigma) supplemented by 10% (v/v) FCS (fetal calf serum). The GBA2 enzyme was over-expressed in HEK298T cells cultivated on a DMEM medium enriched with glucose (Gibco) supplemented by 10% NBS (newborn bovine serum) and 100 units/mL of penicillin/streptomycin (Gibco) and 5% CO2 at 37° C. The activity of the compounds on human β-glucosylceramide synthase (GCS) is evaluated in situ on cells of the RAW 264.7 type cultivated on an RPMI medium (Gibco) supplemented by 10% FCS, 1 mM of glutamax, 100 units/mL of penicillin/streptomycin (Gibco) and 5% CO2 at 37° C.
# (§2) These cell lysates are homogenized using a SilentCrusher grinder (Heidolph®), and then subjected to ultracentrifugation at 32,000 rpm for 30 minutes at 4° C. The total protein concentration is determined in accordance with the Bradford method (Bradford, 1976, Anal. Biochem. 72: 248-254), using a Bradford BioRad Quick Start® kit (Pierce) and BSA (Sigma). The lysates are next aliquoted and stored at −80° C. before use.
# The residual activity of GCS in the presence of the compounds is determined after pre-incubation for 1 hour of the homogenates of RAW 264.7 cells with an inhibitor of GBA1, conduritol β-epoxide (Sigma), at a concentration of 300 μM.
# The I50 values for the GCS enzyme are determined in situ in the cell culture medium at pH 7.0 using 1 μM of NBD-ceramide (N-[12-[(7-nitro-2-1,3-benzoxadiazol-4-yl)amino]dodecanoyl]-D-erythro-sphingosine) as substrate, as described in the aforementioned publication of Lahav et al.
# [2] = target: T1, α-glucosidase II of the endoplasmic reticulum (GANAB) (Homo sapiens (Human), UniProt Q14697); assay: Inhibition of GANAB in lysates of fibroblasts of Pompe patients; type: biochemical; details: pH 7.0, 4-methyl-umbelliferone-α-D-glucopyranoside 2.4 mM, 2 hours
# T1 sequence (Q14697 29-944): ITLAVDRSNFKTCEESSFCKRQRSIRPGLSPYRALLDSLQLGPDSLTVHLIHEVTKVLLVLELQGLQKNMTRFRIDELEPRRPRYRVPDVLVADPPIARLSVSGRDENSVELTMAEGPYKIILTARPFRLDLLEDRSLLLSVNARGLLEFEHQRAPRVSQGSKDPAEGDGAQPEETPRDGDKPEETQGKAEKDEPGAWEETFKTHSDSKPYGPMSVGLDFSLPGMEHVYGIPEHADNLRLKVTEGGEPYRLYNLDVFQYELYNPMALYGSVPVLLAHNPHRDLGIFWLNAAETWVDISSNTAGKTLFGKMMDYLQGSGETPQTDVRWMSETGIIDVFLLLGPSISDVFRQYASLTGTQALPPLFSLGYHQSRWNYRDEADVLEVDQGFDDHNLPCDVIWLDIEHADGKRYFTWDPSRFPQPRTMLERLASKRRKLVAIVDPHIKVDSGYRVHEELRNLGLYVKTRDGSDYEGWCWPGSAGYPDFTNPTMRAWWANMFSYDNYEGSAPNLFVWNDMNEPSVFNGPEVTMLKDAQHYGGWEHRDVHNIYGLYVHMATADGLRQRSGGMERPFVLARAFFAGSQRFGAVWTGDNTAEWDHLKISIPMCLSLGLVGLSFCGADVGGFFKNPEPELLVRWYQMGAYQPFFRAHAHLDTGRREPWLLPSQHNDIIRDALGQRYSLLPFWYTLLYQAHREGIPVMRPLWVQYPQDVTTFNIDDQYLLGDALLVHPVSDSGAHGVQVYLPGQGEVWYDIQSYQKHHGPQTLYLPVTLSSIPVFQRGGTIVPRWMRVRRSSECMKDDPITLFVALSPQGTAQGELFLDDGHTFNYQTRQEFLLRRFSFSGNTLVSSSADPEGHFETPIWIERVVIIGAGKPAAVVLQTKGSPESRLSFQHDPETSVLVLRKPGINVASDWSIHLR
# T1 sequence (P14314 15-528 partner): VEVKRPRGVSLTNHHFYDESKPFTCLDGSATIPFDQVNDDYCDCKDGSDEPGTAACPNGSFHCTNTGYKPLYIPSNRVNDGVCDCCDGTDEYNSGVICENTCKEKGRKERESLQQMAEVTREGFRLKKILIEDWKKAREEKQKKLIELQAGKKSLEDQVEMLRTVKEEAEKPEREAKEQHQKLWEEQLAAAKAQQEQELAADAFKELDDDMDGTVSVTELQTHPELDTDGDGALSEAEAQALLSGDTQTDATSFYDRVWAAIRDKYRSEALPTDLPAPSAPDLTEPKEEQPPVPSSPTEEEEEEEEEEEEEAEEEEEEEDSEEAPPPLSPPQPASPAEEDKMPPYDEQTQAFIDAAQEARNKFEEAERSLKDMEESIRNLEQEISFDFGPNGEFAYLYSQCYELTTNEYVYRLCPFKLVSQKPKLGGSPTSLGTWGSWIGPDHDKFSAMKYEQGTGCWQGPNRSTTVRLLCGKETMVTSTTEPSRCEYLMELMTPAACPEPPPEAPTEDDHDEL
# Experimental: as §1, §2
# [3] = target: T2, recombinant human acid α-glucosidase (rhGAA) (Homo sapiens (Human), UniProt P10253); assay: Inhibition of rhGAA determined by measuring the residual activity in vitro; type: biochemical; details: sodium acetate buffer pH 4.0, 37° C.; for IC50: 4-nitrophenyl-α-D-glucopyranoside substrate
# rhGAA [4] = target: T3, rhGAA (Homo sapiens (Human), UniProt P10253); assay: Thermal stabilization of rhGAA by DSF (differential scanning fluorimetry); type: binding
# Experimental: The stabilization of rhGAA in the presence of the compounds is determined in accordance with the method described in the publication of Niesen et al., 2007, Nat. Protoc. 2: 2212-2221. The rhGAA enzyme (2.5 μg, 0.1 mg/mL) is incubated in the absence and in the presence of each compound (at a concentration [I]=100 μM), of SYPRO® orange dye (Life Technologies), and of sodium phosphate buffer (25 mM) and of NaCI (150 mM), pH 7.4 or of sodium acetate buffer (25 mmol) and of NaCl (150 mM), pH 4.0. The thermal stability of the enzyme in these various conditions is evaluated by DSF (differential scanning fluorimetry) by varying the temperature by 1° C./min over an interval of 25 to 95° C., and measuring the fluorescence of the SYPRO® orange dye every minute by means of a Real-Time Cycler spectrofluorimeter (Biorad). The relative fluorescence is determined by comparing each fluorescence value measured with that of the maximum fluorescence value of the SYPRO® orange dye for each scan. The results are a mean of three identical experiments (triplicates).
# [5] = target: recombinant human lysosomal β-glucocerebrosidase (GBA1) (Homo sapiens (Human), UniProt P04062, R534H); assay: Inhibition of GBA1 (Cerezyme); type: biochemical; details: pH 5.2, 4-methyl-umbelliferone-β-D-glucopyranoside 3.0 mM, 30 minutes
# recombinant human lysosomal β-glucocerebrosidase (GBA1), sequence (P04062 40-536 R534H limits assumed): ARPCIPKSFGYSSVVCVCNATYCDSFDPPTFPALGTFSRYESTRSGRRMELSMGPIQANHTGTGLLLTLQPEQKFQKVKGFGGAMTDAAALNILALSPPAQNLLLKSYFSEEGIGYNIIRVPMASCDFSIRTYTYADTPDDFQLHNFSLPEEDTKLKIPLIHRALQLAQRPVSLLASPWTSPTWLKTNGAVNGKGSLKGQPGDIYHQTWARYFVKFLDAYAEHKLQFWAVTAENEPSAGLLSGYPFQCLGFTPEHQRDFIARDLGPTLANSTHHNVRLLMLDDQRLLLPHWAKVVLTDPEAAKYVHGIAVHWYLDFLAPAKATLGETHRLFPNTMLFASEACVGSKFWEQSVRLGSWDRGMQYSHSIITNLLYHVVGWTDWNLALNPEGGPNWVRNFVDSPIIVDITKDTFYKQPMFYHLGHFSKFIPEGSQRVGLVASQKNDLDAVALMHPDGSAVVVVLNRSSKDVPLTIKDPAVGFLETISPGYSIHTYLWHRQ
# Experimental: as §1
# [6] = target: human non-lysosomal β-glucosylceramidase (GBA2) (Homo sapiens (Human), UniProt Q9HCG7); assay: Inhibition of GBA2 in lysates of HEK298T cells over-expressing GBA2; type: biochemical; details: pH 5.8, 4-methyl-umbelliferone-β-D-glucopyranoside 3.0 mM, 1 hour
# human non-lysosomal β-glucosylceramidase (GBA2), sequence (Q9HCG7 whole entry): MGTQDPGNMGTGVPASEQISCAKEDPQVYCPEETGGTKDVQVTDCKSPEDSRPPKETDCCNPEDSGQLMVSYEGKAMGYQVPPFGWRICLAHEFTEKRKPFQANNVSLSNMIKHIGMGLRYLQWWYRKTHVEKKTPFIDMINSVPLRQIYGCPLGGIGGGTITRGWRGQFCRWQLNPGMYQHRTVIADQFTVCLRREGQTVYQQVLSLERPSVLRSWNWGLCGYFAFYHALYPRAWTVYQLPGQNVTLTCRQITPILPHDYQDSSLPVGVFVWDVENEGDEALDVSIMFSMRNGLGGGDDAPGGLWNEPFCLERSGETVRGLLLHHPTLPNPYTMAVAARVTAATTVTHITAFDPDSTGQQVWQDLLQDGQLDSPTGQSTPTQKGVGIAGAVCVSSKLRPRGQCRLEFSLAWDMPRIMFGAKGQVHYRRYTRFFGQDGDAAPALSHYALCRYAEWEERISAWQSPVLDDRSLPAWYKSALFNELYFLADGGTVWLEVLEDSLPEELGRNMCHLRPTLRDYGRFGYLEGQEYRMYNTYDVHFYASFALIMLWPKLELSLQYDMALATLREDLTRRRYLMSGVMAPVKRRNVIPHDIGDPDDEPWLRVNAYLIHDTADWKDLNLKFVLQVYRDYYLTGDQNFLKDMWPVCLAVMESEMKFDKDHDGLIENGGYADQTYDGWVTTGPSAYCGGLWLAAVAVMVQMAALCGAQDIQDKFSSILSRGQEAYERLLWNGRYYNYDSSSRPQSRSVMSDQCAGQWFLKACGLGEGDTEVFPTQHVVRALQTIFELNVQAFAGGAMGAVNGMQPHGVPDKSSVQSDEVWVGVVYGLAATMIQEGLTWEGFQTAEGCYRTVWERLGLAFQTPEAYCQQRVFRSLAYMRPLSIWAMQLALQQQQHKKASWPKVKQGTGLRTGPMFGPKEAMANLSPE
# Experimental: as §1, §2
# The residual activity of GBA2 in the presence of the compounds is determined after pre-incubation for 30 minutes of the homogenates of HEK298T cells over-expressing GBA2 with an inhibitor of GBA1, conduritol β-epoxide (Sigma), at a concentration of 1 mM.
# [7] = target: T2, recombinant human acid α-glucosidase (rhGAA); assay: Inhibition of rhGAA determined by Fluopol-ABPP; type: binding; details: McIlvaine buffer pH 5.0, 37° C., TAMRA probe
# From the text: The inhibiting activity on recombinant human acid α-glucosidase (rhGAA) of the compounds is implemented using the Fluopol-ABPP method (Fluorescence Polarization Activity Based Protein Profiling) described in the publication of Lahav et al., 2017, J. Am. Chem. Soc. 139: 14192-14197. This technique, based on the competition between an inhibitor and a fluorescent probe capable of binding covalently to the active site of an enzyme, makes it possible to measure the affinity of this inhibitor for the active site of the rhGAA enzyme used for these experiments by the laboratory of Professors Herman S. Overkleeft and Johanes M. F. G. Aerts, Leiden Institute of Chemistry, Leiden University (NL), is the enzyme marketed under the name Myozyme®. […] The […] (TAMRA) fluorescent probe in solution (25 nM) in the buffer is next added to the mixture. After 4 hours, the samples are irradiated with a polarized light (λ=530 nm) and the fluorescence emitted (λ=580 nm) is measured by means of an Infinite® M1000Pro (Tecan) spectrofluorimeter. For each concentration of inhibitor, the percentage of inhibition of the enzyme is determined by the formula:
# %Inhibition=[Fmeasured−Fcontrol1)/Fcontro2)×100
# The IC50 values are calculated by a non-linear regression of the % inhibition as a function of the concentration [I] by means of the GraphPad Prism 6.0 software. The results are a mean of three identical experiments (triplicates).
# rhGAA [8] = target: T3, rhGAA; details: literature value, cited from earlier work; for rhGAA ΔTm: pH 4.3, measured at [compound]=10 times the value of Ki
# [9] = target: T1, α-glucosidase II of the endoplasmic reticulum (GANAB); details: literature value; cited from earlier work
# [10] = [I]=100 μM, pH 4.0, read-out: rhGAA ΔTm at pH 4.0
# [11] = [I]=100 μM, pH 7.4, read-out: rhGAA ΔTm at pH 7.4
SMILES,IC50 [1] [µM],IC50 [2] [µM],Ki [3] [µM],IC50 [3] [µM],ΔTm at 100 µM (rhGAA [4]; [10]) [°C],ΔTm at 100 µM (rhGAA [4]; [11]) [°C],IC50 [5] [µM],IC50 [6] [µM],IC50 [7] [µM],ΔTm at 100 µM (rhGAA [4]; read-out: rhGAA ΔTm at pH 4.0) [°C],ΔTm at 100 µM (rhGAA [4]; read-out: rhGAA ΔTm at pH 7.4) [°C],rhGAA ΔTm (rhGAA [8]),rhGAA ΔTm at pH 7.4 (rhGAA [8]),IC50 [9] [µM]
"OC[C@@]12CCCN1C[C@H](O)[C@@H](O)[C@@H]2O [(IIg), (6S, 7R, 8R, 8aR)-8a-(hydroxymethyl)-octahydroindolizine-6,7,8-triol]",> 50,> 100,–,387,–,–,> 1000,> 1000,0.46,6.7,14.4,–,–,–
"OC[C@@]12CCCCN1C[C@H](O)[C@@H](O)[C@@H]2O [(IIf), (1R,2R,3S,9aR)-9a-(hydroxymethyl)octahydro-1H-quinolizine-1,2,3-triol]",> 50,> 100,–,297,6.4,11.8,> 1000,> 1000,0.87,–,–,–,–,–
"OC[C@H]1NC[C@H](O)[C@@H](O)[C@@H]1O [DNJ, deoxynojirimycin]",–,–,–,–,–,–,–,–,–,–,–,2.7 (pH 4.3)*^b ° C.,15^c^ ° C.,–
"CC[C@]1(CO)NC[C@H](O)[C@@H](O)[C@@H]1O [(IIa), (2R,3R,4R,5S)-2-ethyl-2-(hydroxymethyl)piperidine-3,4,5-triol]",> 50,> 100,–,341,8.1,12.7,> 1000,> 1000,0.42,–,–,–,–,–
CCCCN1C[C@H](O)[C@@H](O)[C@H](O)[C@H]1CO [NB-DNJ],–,–,–,–,–,–,–,–,–,–,–,6.2 (pH 4.3)*^b ° C.,12^d^ ° C.,15

# Continued, in another order:
IC50 [1] [µM],IC50 [2] [µM],Ki [3] [µM],IC50 [3] [µM],ΔTm at 100 µM (rhGAA [4]; [10]) [°C],ΔTm at 100 µM (rhGAA [4]; [11]) [°C],IC50 [5] [µM],IC50 [6] [µM],IC50 [7] [µM],SMILES,ΔTm at 100 µM (rhGAA [4]; read-out: rhGAA ΔTm at pH 4.0) [°C],ΔTm at 100 µM (rhGAA [4]; read-out: rhGAA ΔTm at pH 7.4) [°C],rhGAA ΔTm (rhGAA [8]),rhGAA ΔTm at pH 7.4 (rhGAA [8]),IC50 [9] [µM]
> 50,> 100,18.9,182,9.4,10.7,> 1000,> 1000,0.15,"OCC[C@]1(CO)NC[C@H](O)[C@@H](O)[C@@H]1O [(IId), (2R,3R,4R,5S)-2-(2-hydroxyethyl)-2-(hydroxymethyl)piperidine-3,4,5-triol]",–,–,–,–,–
> 50,> 100,13,104,7.8,11.5,> 1000,> 1000,0.39,"CCC[C@]1(CO)NC[C@H](O)[C@@H](O)[C@@H]1O [(IIb), (2R,3R,4R,5S)-2-(hydroxymethyl)-2-propylpiperidine-3,4,5-triol]",–,–,–,–,–
> 50,> 100,7.6,37.2,11.8,13,> 1000,> 1000,0.22,"OC[C@@]1(CCc2ccccc2)NC[C@H](O)[C@@H](O)[C@@H]1O [(IIc), (2R,3R,4R,5S)-2-(hydroxymethyl)-2-phenethylpiperidine-3,4,5-triol]",–,–,–,–,–
